From patent US8822517B2, “Arylosulfonamides for the treatment of CNS diseases” (Adamed SP. Z O.O., priority 2010, dated 2014)

Key:
[1] = biological target: serotoninergic 5-HT7 receptor (Homo sapiens, UniProt P34969); experiment: Binding assay 5-HT7 (h), [3H]LSD, CHO cells; set-up: expressed in transfected cells; host or cells: CHO cells; settings: read-out: 5-HT7
Outline: (§1)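 Total binding and binding under an excess of unlabelled competitor were both measured, the difference giving specific binding. Counts came from scintillation detection, and compound concentration was 1×10^−6 M.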

adrenergic α1 receptor = experiment: Binding assay α1 (non-selective), [3H]prazosin, rat cerebral cortex; settings: percent inhibition of control specific binding; compounds tested at 1×10^−6 M
Outline: as §1

[2] = biological target: serotoninergic 5-HT6 receptor (Homo sapiens, UniProt P50406); experiment: Binding assay 5-HT6 (h), [3H]LSD, CHO cells; set-up: expressed in transfected cells; host or cells: CHO cells; settings: read-out: 5-HT6
Outline: as §1

[3] = biological target: serotoninergic 5-HT2A receptor (Homo sapiens, UniProt P28223); experiment: Binding assay 5-HT2A (h), [3H]ketanserin, HEK-293 cells; set-up: expressed in transfected cells; host or cells: HEK-293 cells; settings: read-out: 5-HT2A
Outline: as §1

dopaminergic D3 receptor = dopaminergic D3 receptor (Homo sapiens, UniProt P35462); experiment: Binding assay D3 (h), [3H]methyl-spiperone, CHO cells; set-up: expressed in transfected cells; host or cells: CHO cells; settings: read-out: D3 [%]
Outline: as §1

dopaminergic D2 receptor = dopaminergic D2 receptor (Homo sapiens, UniProt P14416); experiment: Binding assay D2S (h), [3H]methyl-spiperone, HEK-293 cells; set-up: expressed in transfected cells; host or cells: HEK-293 cells; settings: read-out: D2 [%]
Outline: as §1

[4] = biological target: T1, serotonine transporter (SERT) receptor (Homo sapiens, UniProt P31645); experiment: Binding assay SERT (h), [3H]imipramine, CHO cells; settings: read-out: SERT [%]
T1 construct: expressed in transfected cells; host or cells: CHO cells
Outline: as §1

[5] = biological target: T2, serotoninergic 5-HT1A receptor (Homo sapiens, UniProt P08908); experiment: Binding assay 5-HT1A (h), [3H]8-OH-DPAT, HEK-293 cells; set-up: expressed in transfected cells; host or cells: HEK-293 cells; settings: read-out: 5-HT1A
T2 sequence (P08908 1-422): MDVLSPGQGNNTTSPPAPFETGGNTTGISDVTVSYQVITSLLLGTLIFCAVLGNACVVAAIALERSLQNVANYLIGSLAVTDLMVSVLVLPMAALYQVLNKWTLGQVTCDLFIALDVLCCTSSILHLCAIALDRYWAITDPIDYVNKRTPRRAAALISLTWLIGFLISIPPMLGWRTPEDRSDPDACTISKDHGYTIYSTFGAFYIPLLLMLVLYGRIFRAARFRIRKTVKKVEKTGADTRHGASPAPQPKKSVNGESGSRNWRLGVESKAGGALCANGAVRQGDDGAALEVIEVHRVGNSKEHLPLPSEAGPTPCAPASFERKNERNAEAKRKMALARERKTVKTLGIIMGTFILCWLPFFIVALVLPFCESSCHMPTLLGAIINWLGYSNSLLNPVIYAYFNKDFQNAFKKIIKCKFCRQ
Outline: as §1

T1 sequence (P31645 whole entry): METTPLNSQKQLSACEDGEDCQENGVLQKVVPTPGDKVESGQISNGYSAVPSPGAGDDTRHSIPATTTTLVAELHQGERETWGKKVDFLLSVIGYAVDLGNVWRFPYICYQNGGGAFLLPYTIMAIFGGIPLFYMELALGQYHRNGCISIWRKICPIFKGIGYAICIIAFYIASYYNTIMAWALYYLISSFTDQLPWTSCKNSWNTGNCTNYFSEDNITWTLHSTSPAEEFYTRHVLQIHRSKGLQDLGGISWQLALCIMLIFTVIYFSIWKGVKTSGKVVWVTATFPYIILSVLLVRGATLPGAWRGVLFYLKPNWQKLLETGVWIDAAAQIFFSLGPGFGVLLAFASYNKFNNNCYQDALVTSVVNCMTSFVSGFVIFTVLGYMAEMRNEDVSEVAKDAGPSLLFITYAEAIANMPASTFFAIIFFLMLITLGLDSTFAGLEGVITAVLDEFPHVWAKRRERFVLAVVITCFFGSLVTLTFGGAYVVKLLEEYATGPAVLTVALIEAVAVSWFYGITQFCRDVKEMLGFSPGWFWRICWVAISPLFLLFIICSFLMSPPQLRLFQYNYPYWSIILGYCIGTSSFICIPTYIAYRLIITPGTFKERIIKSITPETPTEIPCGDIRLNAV
Chain of serotoninergic 5-HT6 receptor (P50406 whole entry): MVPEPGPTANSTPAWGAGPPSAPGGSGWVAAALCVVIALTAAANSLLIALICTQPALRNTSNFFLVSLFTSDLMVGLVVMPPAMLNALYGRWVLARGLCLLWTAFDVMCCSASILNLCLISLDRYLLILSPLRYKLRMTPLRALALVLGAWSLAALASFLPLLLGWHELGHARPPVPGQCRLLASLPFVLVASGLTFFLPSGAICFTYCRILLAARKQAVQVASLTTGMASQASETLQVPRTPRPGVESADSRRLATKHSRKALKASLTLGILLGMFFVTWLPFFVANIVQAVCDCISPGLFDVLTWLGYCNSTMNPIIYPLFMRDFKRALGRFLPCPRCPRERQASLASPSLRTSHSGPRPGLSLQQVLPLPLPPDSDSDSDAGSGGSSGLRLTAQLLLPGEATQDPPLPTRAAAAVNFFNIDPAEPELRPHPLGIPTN
Chain of serotoninergic 5-HT7 receptor (P34969 whole entry): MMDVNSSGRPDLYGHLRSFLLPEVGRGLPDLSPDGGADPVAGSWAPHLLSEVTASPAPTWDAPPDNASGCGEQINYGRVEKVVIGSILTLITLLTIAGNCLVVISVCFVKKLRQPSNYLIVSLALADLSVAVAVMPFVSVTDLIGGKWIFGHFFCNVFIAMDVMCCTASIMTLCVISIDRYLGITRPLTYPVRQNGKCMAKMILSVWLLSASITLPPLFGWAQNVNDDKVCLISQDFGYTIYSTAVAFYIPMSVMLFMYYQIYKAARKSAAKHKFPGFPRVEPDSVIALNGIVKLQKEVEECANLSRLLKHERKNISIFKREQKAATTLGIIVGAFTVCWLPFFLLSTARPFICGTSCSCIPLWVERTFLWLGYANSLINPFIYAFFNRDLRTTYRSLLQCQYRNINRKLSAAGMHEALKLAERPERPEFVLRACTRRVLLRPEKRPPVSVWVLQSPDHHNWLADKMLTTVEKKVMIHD
Chain of dopaminergic D3 receptor (P35462 whole entry): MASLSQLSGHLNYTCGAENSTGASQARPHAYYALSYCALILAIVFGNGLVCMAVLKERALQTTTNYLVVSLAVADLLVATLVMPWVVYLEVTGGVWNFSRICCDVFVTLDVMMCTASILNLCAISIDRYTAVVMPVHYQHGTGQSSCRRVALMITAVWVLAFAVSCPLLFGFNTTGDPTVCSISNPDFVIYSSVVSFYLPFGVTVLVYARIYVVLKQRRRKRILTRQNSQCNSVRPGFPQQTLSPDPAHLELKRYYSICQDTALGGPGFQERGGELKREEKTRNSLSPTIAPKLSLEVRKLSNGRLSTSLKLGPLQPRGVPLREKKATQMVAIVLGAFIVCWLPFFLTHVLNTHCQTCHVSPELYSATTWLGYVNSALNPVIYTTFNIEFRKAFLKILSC
Chain of dopaminergic D2 receptor (P14416 1-414 isoform P14416-2): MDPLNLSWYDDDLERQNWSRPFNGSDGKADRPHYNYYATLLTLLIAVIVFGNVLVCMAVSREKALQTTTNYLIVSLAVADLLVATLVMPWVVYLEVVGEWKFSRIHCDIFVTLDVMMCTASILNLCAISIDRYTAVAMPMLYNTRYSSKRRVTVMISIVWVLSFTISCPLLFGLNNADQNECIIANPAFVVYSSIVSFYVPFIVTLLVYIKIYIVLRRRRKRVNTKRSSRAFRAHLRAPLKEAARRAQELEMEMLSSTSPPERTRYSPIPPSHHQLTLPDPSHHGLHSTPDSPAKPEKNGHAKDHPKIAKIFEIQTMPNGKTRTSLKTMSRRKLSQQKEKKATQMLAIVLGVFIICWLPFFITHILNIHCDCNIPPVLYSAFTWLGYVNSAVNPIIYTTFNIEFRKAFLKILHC
Chain of serotoninergic 5-HT2A receptor (P28223 whole entry): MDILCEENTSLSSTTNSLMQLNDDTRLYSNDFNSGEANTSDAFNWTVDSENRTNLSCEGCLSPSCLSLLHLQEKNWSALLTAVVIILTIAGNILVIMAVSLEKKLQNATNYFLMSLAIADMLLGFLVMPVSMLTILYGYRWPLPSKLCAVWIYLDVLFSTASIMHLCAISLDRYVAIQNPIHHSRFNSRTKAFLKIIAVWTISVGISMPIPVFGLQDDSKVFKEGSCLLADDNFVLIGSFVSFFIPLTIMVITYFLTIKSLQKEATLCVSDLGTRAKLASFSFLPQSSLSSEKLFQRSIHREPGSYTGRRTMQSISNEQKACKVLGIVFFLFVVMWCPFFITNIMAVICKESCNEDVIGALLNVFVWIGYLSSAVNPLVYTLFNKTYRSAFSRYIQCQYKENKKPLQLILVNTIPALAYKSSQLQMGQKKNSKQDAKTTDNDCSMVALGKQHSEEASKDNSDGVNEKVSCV

| SMILES | inhibition at 1 µM [1] | α1 [%] (adrenergic α1 receptor) | inhibition at 1 µM [2] | inhibition at 1 µM [3] | inhibition at 1 µM (dopaminergic D3 receptor) | inhibition at 1 µM (dopaminergic D2 receptor) | inhibition at 1 µM [4] | inhibition at 1 µM [5] |
| --- | --- | --- | --- | --- | --- | --- | --- | --- |
| O=S(=O)(NCCCCN1CCN(c2noc3ccccc23)CC1)c1ccc(Cl)cc1 [Compound 273, N-[4-[4-(1,2-Benzoxazol-3-yl)piperazin-1-yl]butyl]-4-chlorobenzenesulphonamide] | 97% | 101% | 74% | 95% | 85% | 88% | 22% | 46% |
| O=S(=O)(NCCCCN1CCN(c2noc3ccccc23)CC1)c1ccc(Br)cc1 [Compound 274, N-[4-[4-(1,2-Benzoxazol-3-yl)piperazin-1-yl]butyl]-4-bromobenzenesulphonamide] | 83% | 99% | 81% | 97% | 91% | 96% | 30% | 73% |
| O=S(=O)(NCCCCN1CCN(c2noc3ccccc23)CC1)c1ccc(F)c(Cl)c1 [Compound 276, N-[4-[4-(1,2-Benzoxazol-3-yl)piperazin-1-yl]butyl]-3-chloro-4-fluorobenzenesulphonamide] | 87% | 95% | 78% | 87% | 69% | 95% | 3% | 51% |
| N#Cc1cccc(S(=O)(=O)NCCCCN2CCN(c3noc4ccccc34)CC2)c1 [Compound 282, N-[4-[4-(1,2-Benzoxazol-3-yl)piperazin-1-yl]butyl]-3-cyanobenzenesulphonamide] | 98% | 102% | 64% | 78% | 87% | 97% | 12% | 50% |
| O=S(=O)(NCCCCN1CCN(c2noc3ccccc23)CC1)c1ccc2c(c1)CCO2 [Compound 289, N-[4-[4-(1,2-Benzoxazol-3-yl)piperazin-1-yl]butyl]-2,3-dihydrobenzofuran-5-sulphonamide] | 91% | 100% | 78% | 94% | 79% | 99% | 9% | 68% |
| O=S(=O)(NCCCCN1CCN(c2noc3ccccc23)CC1)c1ccc2cn[nH]c2c1 [Compound 291, N-[4-[4-(1,2-Benzoxazol-3-yl)piperazin-1-yl]butyl]-1H-indazole-6-sulphonamide] | 99% | 99% | 83% | 83% | 85% | 99% | 8% | 38% |
| O=S(=O)(NCCCCN1CCN(c2noc3ccccc23)CC1)c1cnc2ccccn12 [Compound 293, N-[4-[4-(1,2-Benzoxazol-3-yl)piperazin-1-yl]butyl]imidazo[1,2-a]pyridine-3-sulphonamide] | 93% | 98% | 44% | 89% | 65% | 85% | 3% | 57% |
| O=S(=O)(NCCCCN1CCC(c2noc3cc(F)ccc23)CC1)c1ccc(F)cc1 [Compound 294, 4-Fluoro-N-[4-[4-(6-fluoro-1,2-benzoxazol-3-yl)piperidin-1-yl]butyl]benzenesulphonamide] | 94% | 101% | 72% | 95% | 95% | 105% | -14% | 23% |
| O=S(=O)(NCCCCN1CCC(c2noc3cc(F)ccc23)CC1)c1ccc(Cl)cc1 [Compound 296, 4-Chloro-N-[4-[4-(6-fluoro-1,2-benzoxazol-3-yl)piperidin-1-yl]butyl]benzenesulphonamide] | 91% | 101% | 83% | 93% | 100% | 105% | 49% | 34% |
| O=S(=O)(NCCCCN1CCC(c2noc3cc(F)ccc23)CC1)c1ccc(Cl)c(Cl)c1 [Compound 297, 3,4-Dichloro-N-[4-[4-(6-fluoro-1,2-benzoxazol-3-yl)piperidin-1-yl]butyl]benzenesulphonamide] | 88% | 100% | 87% | 95% | 100% | 93% | 23% | 31% |
| O=S(=O)(NCCCCN1CCC(c2noc3cc(F)ccc23)CC1)c1ccc(F)c(Cl)c1 [Compound 299, 3-Chloro-4-fluoro-N-[4-[4-(6-fluoro-1,2-benzoxazol-3-yl)piperidin-1-yl]butyl]benzenesulphonamide] | 75% | 98% | 84% | 89% | 98% | 87% | 14% | 45% |
| O=S(=O)(NCCCCN1CCC(c2noc3cc(F)ccc23)CC1)c1ccc(C(F)(F)F)cc1 [Compound 302, N-[4-[4-(6-Fluoro-1,2-benzoxazol-3-yl)piperidin-1-yl]butyl]-4-(trifluoromethyl)benzenesulphonamide] | 101% | 100% | 72% | 95% | 99% | 90% | 19% | 50% |
| O=S(=O)(NCCCCN1CCC(c2noc3cc(F)ccc23)CC1)c1cccc(C(F)(F)F)c1 [Compound 303, N-[4-[4-(6-Fluoro-1,2-benzoxazol-3-yl)piperidin-1-yl]butyl]-3-(trifluoromethyl)-benzenesulphonamide] | 98% | 97% | 90% | 96% | 97% | 108% | 9% | 35% |
| O=S(=O)(NCCCCN1CCC(c2noc3cc(F)ccc23)CC1)c1ccc(OC(F)(F)F)cc1 [Compound 304, N-[4-[4-(6-Fluoro-1,2-benzoxazol-3-yl)piperidin-1-yl]butyl]-4-(trifluoromethoxy)-benzenesulphonamide] | 93% | 101% | 78% | 76% | 87% | 94% | 4% | 60% |
| N#Cc1ccc(S(=O)(=O)NCCCCN2CCC(c3noc4cc(F)ccc34)CC2)cc1 [Compound 305, 4-Cyano-N-[4-[4-(6-fluoro-1,2-benzoxazol-3-yl)piperidin-1-yl]butyl]benzenesulphonamide] | 85% | 99% | 78% | 96% | 103% | 88% | -18% | 58% |
| N#Cc1cccc(S(=O)(=O)NCCCCN2CCC(c3noc4cc(F)ccc34)CC2)c1 [Compound 306, 3-Cyano-N-[4-[4-(6-fluoro-1,2-benzoxazol-3-yl)piperidin-1-yl]butyl]benzenesulphonamide] | 89% | 99% | 81% | 97% | 99% | 106% | -10% | 44% |
| O=S(=O)(NCCCCN1CCC(c2noc3cc(F)ccc23)CC1)c1ccsc1 [Compound 307, N-[4-[4-(6-Fluoro-1,2-benzoxazol-3-yl)piperidin-1-yl]butyl]thiophene-3-sulphonamide] | 85% | 105% | 76% | 99% | 95% | 88% | -3% | 73% |
